Source: the supplement of paper PMC10307832

Assays:
Assay in all cases: relative viability (nuclei count vs DMSO), 5 days (fraction); higher = more cells survive
R406 + Phenformin = compound: COc1cc(Nc2ncc(F)c(Nc3ccc4c(n3)NC(=O)C(C)(C)O4)n2)cc(OC)c1OC [R406] + N=C(N)NC(=N)NCCc1ccccc1 [Phenformin] (partner 250 µM)
How it was run: (§1)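 A single step with final 0.05% Triton X-100, 1% formaldehyde and 1 ug/ml Hoechst fixed the cells and stained nuclei 5 days after treatment. Lung cancer cell lines in 1536-well plates had been treated by pin tool the day after seeding with one drug alone or a fixed anchor-drug dose plus five library-drug doses (not always all listed) in √10 steps, and nuclei were counted on 4× images. Relative viability is the ratio of nuclei in treated wells to nuclei in vehicle wells, taken as the median of duplicate plates.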

Daporinad + Lapatinib = compound: O=C(/C=C/c1cccnc1)NCCCCC1CCN(C(=O)c2ccccc2)CC1 [Daporinad] + CS(=O)(=O)CCNCc1ccc(-c2ccc3ncnc(Nc4ccc(OCc5cccc(F)c5)c(Cl)c4)c3c2)o1 [Lapatinib] (partner 2 µM)
How it was run: as §1

Daporinad + Bortezomib = compound: O=C(/C=C/c1cccnc1)NCCCCC1CCN(C(=O)c2ccccc2)CC1 [Daporinad] + CC(C)C[C@H](NC(=O)[C@H](Cc1ccccc1)NC(=O)c1cnccn1)B(O)O [Bortezomib] (partner 0.002 µM)
How it was run: as §1

R406 + Tozasertib = compound: COc1cc(Nc2ncc(F)c(Nc3ccc4c(n3)NC(=O)C(C)(C)O4)n2)cc(OC)c1OC [R406] + Cc1cc(Nc2cc(N3CCN(C)CC3)nc(Sc3ccc(NC(=O)C4CC4)cc3)n2)n[nH]1 [Tozasertib] (partner 0.1 µM)
How it was run: as §1

NCI-H1993
relative viability (R406 + Phenformin; first compound 0.08 µM): 0.503
relative viability (R406 + Phenformin; first compound 0.253 µM): 0.474
relative viability (R406 + Phenformin; first compound 0.8 µM): 0.525
relative viability (R406 + Phenformin; first compound 2.53 µM): 0.505
relative viability (R406 + Phenformin; first compound 8 µM): 0.569
relative viability (Daporinad + Lapatinib; first compound 0.0005 µM): 0.78
relative viability (Daporinad + Lapatinib; first compound 0.001581 µM): 0.811
relative viability (Daporinad + Lapatinib; first compound 0.005 µM): 0.977
relative viability (Daporinad + Lapatinib; first compound 0.01581 µM): 0.793
relative viability (Daporinad + Bortezomib; first compound 0.0005 µM): 0.919
relative viability (Daporinad + Bortezomib; first compound 0.001581 µM): 1.21
relative viability (Daporinad + Bortezomib; first compound 0.005 µM): 1.09
relative viability (Daporinad + Bortezomib; first compound 0.01581 µM): 1.12
relative viability (R406 + Tozasertib; first compound 0.08 µM): 0.597
relative viability (R406 + Tozasertib; first compound 0.253 µM): 0.536
relative viability (R406 + Tozasertib; first compound 0.8 µM): 0.605
relative viability (R406 + Tozasertib; first compound 2.53 µM): 0.493
relative viability (R406 + Tozasertib; first compound 8 µM): 0.432

NCI-H2009
relative viability (R406 + Phenformin; first compound 0.08 µM): 0.47
relative viability (R406 + Phenformin; first compound 0.253 µM): 0.501
relative viability (R406 + Phenformin; first compound 0.8 µM): 0.487
relative viability (R406 + Phenformin; first compound 2.53 µM): 0.333
relative viability (R406 + Phenformin; first compound 8 µM): 0.185
relative viability (Daporinad + Lapatinib; first compound 0.0005 µM): 1.3
relative viability (Daporinad + Lapatinib; first compound 0.001581 µM): 1.02
relative viability (Daporinad + Lapatinib; first compound 0.005 µM): 1.07
relative viability (Daporinad + Lapatinib; first compound 0.01581 µM): 0.9
relative viability (Daporinad + Bortezomib; first compound 0.0005 µM): 0.887
relative viability (Daporinad + Bortezomib; first compound 0.001581 µM): 1.09
relative viability (Daporinad + Bortezomib; first compound 0.005 µM): 1.06
relative viability (Daporinad + Bortezomib; first compound 0.01581 µM): 0.846
relative viability (R406 + Tozasertib; first compound 0.08 µM): 0.816
relative viability (R406 + Tozasertib; first compound 0.253 µM): 0.848
relative viability (R406 + Tozasertib; first compound 0.8 µM): 0.716
relative viability (R406 + Tozasertib; first compound 2.53 µM): 0.627
relative viability (R406 + Tozasertib; first compound 8 µM): 0.311

NCI-H2023
relative viability (R406 + Phenformin; first compound 0.08 µM): 0.374
relative viability (R406 + Phenformin; first compound 0.253 µM): 0.444
relative viability (R406 + Phenformin; first compound 0.8 µM): 0.464
relative viability (R406 + Phenformin; first compound 2.53 µM): 0.312
relative viability (R406 + Phenformin; first compound 8 µM): 0.163
relative viability (Daporinad + Lapatinib; first compound 0.0005 µM): 0.699
relative viability (Daporinad + Lapatinib; first compound 0.001581 µM): 0.946
relative viability (Daporinad + Lapatinib; first compound 0.005 µM): 0.76
relative viability (Daporinad + Lapatinib; first compound 0.01581 µM): 0.843
relative viability (Daporinad + Bortezomib; first compound 0.0005 µM): 1.01
relative viability (Daporinad + Bortezomib; first compound 0.001581 µM): 1.1
relative viability (Daporinad + Bortezomib; first compound 0.005 µM): 1.04
relative viability (Daporinad + Bortezomib; first compound 0.01581 µM): 0.972
relative viability (R406 + Tozasertib; first compound 0.08 µM): 0.384
relative viability (R406 + Tozasertib; first compound 0.253 µM): 0.396
relative viability (R406 + Tozasertib; first compound 0.8 µM): 0.354
relative viability (R406 + Tozasertib; first compound 2.53 µM): 0.225
relative viability (R406 + Tozasertib; first compound 8 µM): 0.178

NCI-H2085
relative viability (R406 + Phenformin; first compound 0.08 µM): 0.763
relative viability (R406 + Phenformin; first compound 0.253 µM): 0.811
relative viability (R406 + Phenformin; first compound 0.8 µM): 0.769
relative viability (R406 + Phenformin; first compound 2.53 µM): 0.316
relative viability (R406 + Phenformin; first compound 8 µM): 0.495
relative viability (Daporinad + Lapatinib; first compound 0.0005 µM): 0.739
relative viability (Daporinad + Lapatinib; first compound 0.001581 µM): 0.741
relative viability (Daporinad + Lapatinib; first compound 0.005 µM): 0.871
relative viability (Daporinad + Lapatinib; first compound 0.01581 µM): 0.855
relative viability (Daporinad + Bortezomib; first compound 0.0005 µM): 1
relative viability (Daporinad + Bortezomib; first compound 0.001581 µM): 1.12
relative viability (Daporinad + Bortezomib; first compound 0.005 µM): 1.08
relative viability (Daporinad + Bortezomib; first compound 0.01581 µM): 1.17
relative viability (R406 + Tozasertib; first compound 0.08 µM): 0.83
relative viability (R406 + Tozasertib; first compound 0.253 µM): 0.892
relative viability (R406 + Tozasertib; first compound 0.8 µM): 0.872
relative viability (R406 + Tozasertib; first compound 2.53 µM): 0.632
relative viability (R406 + Tozasertib; first compound 8 µM): 0.379

NCI-H2087
relative viability (R406 + Phenformin; first compound 0.08 µM): 0.487
relative viability (R406 + Phenformin; first compound 0.253 µM): 0.569
relative viability (R406 + Phenformin; first compound 0.8 µM): 0.556
relative viability (R406 + Phenformin; first compound 8 µM): 0.406
relative viability (Daporinad + Lapatinib; first compound 0.0005 µM): 0.99
relative viability (Daporinad + Lapatinib; first compound 0.001581 µM): 0.979
relative viability (Daporinad + Lapatinib; first compound 0.005 µM): 1.18
relative viability (Daporinad + Lapatinib; first compound 0.01581 µM): 1.14
relative viability (Daporinad + Bortezomib; first compound 0.0005 µM): 0.676
relative viability (Daporinad + Bortezomib; first compound 0.001581 µM): 0.644
relative viability (Daporinad + Bortezomib; first compound 0.005 µM): 0.868
relative viability (Daporinad + Bortezomib; first compound 0.01581 µM): 0.662
relative viability (R406 + Tozasertib; first compound 0.08 µM): 0.293
relative viability (R406 + Tozasertib; first compound 0.253 µM): 0.238
relative viability (R406 + Tozasertib; first compound 0.8 µM): 0.298
relative viability (R406 + Tozasertib; first compound 8 µM): 0.253

NCI-H2126
relative viability (R406 + Phenformin; first compound 0.08 µM): 0.527
relative viability (R406 + Phenformin; first compound 0.253 µM): 0.554
relative viability (R406 + Phenformin; first compound 0.8 µM): 0.516
relative viability (R406 + Phenformin; first compound 2.53 µM): 0.529
relative viability (R406 + Phenformin; first compound 8 µM): 0.359
relative viability (Daporinad + Lapatinib; first compound 0.0005 µM): 0.799
relative viability (Daporinad + Lapatinib; first compound 0.001581 µM): 0.677
relative viability (Daporinad + Lapatinib; first compound 0.005 µM): 0.752
relative viability (Daporinad + Lapatinib; first compound 0.01581 µM): 0.82
relative viability (Daporinad + Bortezomib; first compound 0.0005 µM): 1.07
relative viability (Daporinad + Bortezomib; first compound 0.001581 µM): 1.14
relative viability (Daporinad + Bortezomib; first compound 0.005 µM): 1.13
relative viability (Daporinad + Bortezomib; first compound 0.01581 µM): 1.15
relative viability (R406 + Tozasertib; first compound 0.08 µM): 0.829
relative viability (R406 + Tozasertib; first compound 0.253 µM): 0.962
relative viability (R406 + Tozasertib; first compound 0.8 µM): 0.848
relative viability (R406 + Tozasertib; first compound 2.53 µM): 0.806
relative viability (R406 + Tozasertib; first compound 8 µM): 0.545

NCI-H2228
relative viability (R406 + Phenformin; first compound 0.08 µM): 0.318
relative viability (R406 + Phenformin; first compound 0.253 µM): 0.383
relative viability (R406 + Phenformin; first compound 0.8 µM): 0.312
relative viability (R406 + Phenformin; first compound 2.53 µM): 0.106
relative viability (R406 + Phenformin; first compound 8 µM): 0.0936
relative viability (Daporinad + Lapatinib; first compound 0.0005 µM): 1.14
relative viability (Daporinad + Lapatinib; first compound 0.001581 µM): 1.75
relative viability (Daporinad + Lapatinib; first compound 0.005 µM): 1.52
relative viability (Daporinad + Lapatinib; first compound 0.01581 µM): 1.12
relative viability (Daporinad + Bortezomib; first compound 0.0005 µM): 0.788
relative viability (Daporinad + Bortezomib; first compound 0.001581 µM): 1.2
relative viability (Daporinad + Bortezomib; first compound 0.005 µM): 1.12
relative viability (Daporinad + Bortezomib; first compound 0.01581 µM): 1.11
relative viability (R406 + Tozasertib; first compound 0.08 µM): 0.27
relative viability (R406 + Tozasertib; first compound 0.253 µM): 0.31
relative viability (R406 + Tozasertib; first compound 0.8 µM): 0.253
relative viability (R406 + Tozasertib; first compound 2.53 µM): 0.278
relative viability (R406 + Tozasertib; first compound 8 µM): 0.066

NCI-H2347
relative viability (R406 + Phenformin; first compound 0.08 µM): 0.493
relative viability (R406 + Phenformin; first compound 0.253 µM): 0.417
relative viability (R406 + Phenformin; first compound 0.8 µM): 0.43
relative viability (R406 + Phenformin; first compound 2.53 µM): 0.26
relative viability (R406 + Phenformin; first compound 8 µM): 0.235
relative viability (Daporinad + Lapatinib; first compound 0.0005 µM): 1.14
relative viability (Daporinad + Lapatinib; first compound 0.001581 µM): 0.781
relative viability (Daporinad + Lapatinib; first compound 0.005 µM): 1.06
relative viability (Daporinad + Lapatinib; first compound 0.01581 µM): 1.05
relative viability (Daporinad + Bortezomib; first compound 0.0005 µM): 1.15
relative viability (Daporinad + Bortezomib; first compound 0.001581 µM): 1.03
relative viability (Daporinad + Bortezomib; first compound 0.005 µM): 0.922
relative viability (Daporinad + Bortezomib; first compound 0.01581 µM): 1.41
relative viability (R406 + Tozasertib; first compound 0.08 µM): 0.537
relative viability (R406 + Tozasertib; first compound 0.253 µM): 0.671
relative viability (R406 + Tozasertib; first compound 0.8 µM): 0.682
relative viability (R406 + Tozasertib; first compound 2.53 µM): 0.458
relative viability (R406 + Tozasertib; first compound 8 µM): 0.347

NCI-H2405
relative viability (R406 + Phenformin; first compound 0.08 µM): 0.399
relative viability (R406 + Phenformin; first compound 0.253 µM): 0.427
relative viability (R406 + Phenformin; first compound 0.8 µM): 0.402
relative viability (R406 + Phenformin; first compound 2.53 µM): 0.284
relative viability (R406 + Phenformin; first compound 8 µM): 0.195
relative viability (Daporinad + Lapatinib; first compound 0.0005 µM): 1.1
relative viability (Daporinad + Lapatinib; first compound 0.001581 µM): 1.25
relative viability (Daporinad + Lapatinib; first compound 0.005 µM): 1.12
relative viability (Daporinad + Lapatinib; first compound 0.01581 µM): 0.444
relative viability (Daporinad + Bortezomib; first compound 0.0005 µM): 1
relative viability (Daporinad + Bortezomib; first compound 0.001581 µM): 0.772
relative viability (Daporinad + Bortezomib; first compound 0.005 µM): 1.02
relative viability (Daporinad + Bortezomib; first compound 0.01581 µM): 0.612
relative viability (R406 + Tozasertib; first compound 0.08 µM): 0.76
relative viability (R406 + Tozasertib; first compound 0.253 µM): 0.845
relative viability (R406 + Tozasertib; first compound 0.8 µM): 0.82
relative viability (R406 + Tozasertib; first compound 2.53 µM): 0.804
relative viability (R406 + Tozasertib; first compound 8 µM): 0.542
